Tests used:
[1] = target: dopaminergic receptors D2 (Homo sapiens, UniProt P14416); test: Radioligand binding assay, dopaminergic D2 receptors; conditions: for inhibition at 1 µM / D2 [%]: binding assay, test compound 1×10^−6 M
Method in brief: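 Total binding is counted by scintillation and non-specific binding subtracted using an excess of unlabelled ligand. IC50 comes from a Hill-equation fit with slope factor; Ki follows Cheng–Prusoff.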

[2] = target: dopaminergic receptors D3 (Homo sapiens, UniProt P35462); test: Radioligand binding assay, dopaminergic D3 receptors; conditions: test compound 1×10^−6 M
Method in brief: (§1)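 Competition radioligand binding at human D2, D3 and D4.4 receptors, detected by scintillation counting; nonspecific binding defined with excess unlabelled ligand. Results as percent inhibition of control specific binding; IC50 by Hill-equation nonlinear regression; Ki via Cheng-Prusoff, with radioligand KD from Scatchard plot.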

receptors D4.4 = target: T1, receptors D4.4 (Homo sapiens, UniProt P21917); test: Radioligand binding assay, dopaminergic D4 (D4.4) receptors; conditions: test compound 1×10^−6 M
T1 sequence (P21917 1-419): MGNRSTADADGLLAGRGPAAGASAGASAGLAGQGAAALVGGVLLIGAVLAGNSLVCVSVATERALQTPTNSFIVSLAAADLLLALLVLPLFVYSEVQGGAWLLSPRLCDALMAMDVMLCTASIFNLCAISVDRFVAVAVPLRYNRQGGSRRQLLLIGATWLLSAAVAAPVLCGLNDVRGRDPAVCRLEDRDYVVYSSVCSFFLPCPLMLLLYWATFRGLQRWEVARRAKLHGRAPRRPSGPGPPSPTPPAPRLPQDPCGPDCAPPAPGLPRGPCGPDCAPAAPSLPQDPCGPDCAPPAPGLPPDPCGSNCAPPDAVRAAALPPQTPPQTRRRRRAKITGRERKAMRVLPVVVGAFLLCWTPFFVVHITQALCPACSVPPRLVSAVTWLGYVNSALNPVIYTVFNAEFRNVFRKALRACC
Method in brief: as §1

5-HT2A receptor = target: T2, 5-HT2A receptor (Homo sapiens, UniProt P28223); test: Radioligand binding assay, serotoninergic 5-HT2A receptors; conditions: for inhibition at 1 µM / 5-HT2A [%]: binding assay result in %, Table 5a
T2 construct: purchased PerkinElmer
Method in brief: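 Radioligand competition binding with scintillation counting; nonspecific binding defined by excess unlabelled ligand. Data as percent inhibition of control specific binding. IC50 by Hill-equation fit of competition curves; Ki by Cheng-Prusoff, with radioligand Kd from Scatchard plot.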

5-HT6 receptor = target: T3, 5-HT6 receptor (Homo sapiens, UniProt P50406); test: Radioligand binding assay, serotoninergic 5-HT6 receptors; conditions: for inhibition at 1 µM / 5-HT6 [%]: binding assay result in %, Table 5a
T3 construct: purchased PerkinElmer
Method in brief: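 Values are Ki from Cheng–Prusoff, taking IC50 from Hill nonlinear regression of competition curves and KD from a Scatchard plot. Specific binding was total minus binding with excess unlabelled ligand. Radioligand displacement was detected by scintillation counting, and data were also reported as percent of control specific binding.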

[3] = tested on: α1 adrenergic receptors (rat cerebral cortex); test: Radioligand binding assay, adrenergic α1 receptors; conditions: test compound 1×10^−6 M
Method in brief: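 Values derive from radioligand displacement, with non-specific binding defined by excess cold ligand and detection by scintillation. Hill-fit IC50s were converted to Ki via Cheng-Prusoff using Scatchard-derived Kd; percent inhibition of control specific binding also reported.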

M3 muscarinic receptors = target: T4, M3 muscarinic receptors (Homo sapiens, UniProt P20309); test: Radioligand binding assay, muscarinic M3 receptors; conditions: test compound 1×10^−6 M
T4 construct: expressed in transfected cells; host or cells: CHO cells
Method in brief: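 Radioligand competition binding, detected by scintillation counting; non-specific binding defined with excess unlabelled ligand. Results given as % inhibition of control specific binding; IC50 from Hill-equation fit of competition curves, Ki via Cheng-Prusoff with radioligand KD from Scatchard plot.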

[4] = target: T5, serotonin transporter (SERT) (Homo sapiens, UniProt P31645); test: Radioligand binding assay, serotonin transporter (SERT); conditions: binding assay, test compound 1×10^−6 M
T5 construct: expressed in transfected cells; host or cells: CHO cells
Method in brief: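 Radioligand competition binding with scintillation detection; specific binding is total minus binding under excess unlabelled ligand. Reported as % of control specific binding or % inhibition; IC50 from Hill-equation non-linear regression of competition curves, and Ki via Cheng-Prusoff using radioligand concentration and Scatchard-derived KD.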

[5] = target: T6, H1 histaminergic receptors (Homo sapiens, UniProt P35367); test: Radioligand binding assay, histaminergic H1 receptors; conditions: human recombinant (HEK-293 cells), [3H]pyrilamine 1 nM
T6 construct: expressed in transfected cells; host or cells: HEK-293 cells
Method in brief: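 Competition binding at human H1 receptors; specific binding taken as total minus non-specific binding in excess unlabelled ligand, scintillation read-out. IC50 from Hill-equation fit of competition curves; Ki by Cheng-Prusoff using radioligand concentration and Kd (from Scatchard plot).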

T4 sequence (P20309 whole entry): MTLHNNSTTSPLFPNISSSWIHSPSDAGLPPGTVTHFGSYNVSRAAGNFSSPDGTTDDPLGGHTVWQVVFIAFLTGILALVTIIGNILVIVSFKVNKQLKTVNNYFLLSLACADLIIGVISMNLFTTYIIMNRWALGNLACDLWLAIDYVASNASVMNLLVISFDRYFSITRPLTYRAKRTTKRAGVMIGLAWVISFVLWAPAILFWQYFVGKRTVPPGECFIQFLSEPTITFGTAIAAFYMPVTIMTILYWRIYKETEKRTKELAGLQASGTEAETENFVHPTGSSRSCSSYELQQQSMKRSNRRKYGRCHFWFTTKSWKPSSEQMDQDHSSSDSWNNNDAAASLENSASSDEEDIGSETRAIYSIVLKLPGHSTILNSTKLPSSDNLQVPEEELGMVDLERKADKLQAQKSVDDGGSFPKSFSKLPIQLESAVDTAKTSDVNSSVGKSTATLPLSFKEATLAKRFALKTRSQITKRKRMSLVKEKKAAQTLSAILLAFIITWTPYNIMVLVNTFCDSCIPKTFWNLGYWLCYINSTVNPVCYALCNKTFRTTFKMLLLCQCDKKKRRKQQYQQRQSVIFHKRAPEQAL
T5 sequence (P31645 whole entry): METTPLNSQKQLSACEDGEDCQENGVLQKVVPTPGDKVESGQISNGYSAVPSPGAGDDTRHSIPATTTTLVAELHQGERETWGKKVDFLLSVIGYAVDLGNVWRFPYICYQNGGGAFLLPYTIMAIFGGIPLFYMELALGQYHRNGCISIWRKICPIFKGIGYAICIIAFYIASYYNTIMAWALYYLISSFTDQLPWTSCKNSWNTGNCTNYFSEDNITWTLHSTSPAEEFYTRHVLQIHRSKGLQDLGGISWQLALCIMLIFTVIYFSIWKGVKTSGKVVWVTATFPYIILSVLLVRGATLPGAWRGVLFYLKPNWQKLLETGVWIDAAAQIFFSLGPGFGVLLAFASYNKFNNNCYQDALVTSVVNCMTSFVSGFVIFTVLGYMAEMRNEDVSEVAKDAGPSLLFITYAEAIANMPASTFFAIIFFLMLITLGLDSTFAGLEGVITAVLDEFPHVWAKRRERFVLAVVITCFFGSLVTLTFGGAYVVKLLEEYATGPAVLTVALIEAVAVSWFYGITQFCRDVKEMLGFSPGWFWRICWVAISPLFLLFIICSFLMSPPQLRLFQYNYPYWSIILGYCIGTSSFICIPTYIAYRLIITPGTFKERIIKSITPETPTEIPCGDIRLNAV
T3 sequence (P50406 whole entry): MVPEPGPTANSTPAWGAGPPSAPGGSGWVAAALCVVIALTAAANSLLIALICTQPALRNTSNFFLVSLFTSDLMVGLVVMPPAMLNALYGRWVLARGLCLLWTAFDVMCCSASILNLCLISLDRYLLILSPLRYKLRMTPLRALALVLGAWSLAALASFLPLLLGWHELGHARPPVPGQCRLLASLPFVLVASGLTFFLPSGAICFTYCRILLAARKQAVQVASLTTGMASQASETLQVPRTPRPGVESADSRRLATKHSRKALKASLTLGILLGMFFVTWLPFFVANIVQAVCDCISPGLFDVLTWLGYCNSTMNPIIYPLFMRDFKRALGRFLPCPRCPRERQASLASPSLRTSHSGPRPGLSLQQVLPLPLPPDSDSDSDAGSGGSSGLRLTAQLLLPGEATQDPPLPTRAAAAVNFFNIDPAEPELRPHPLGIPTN
T6 sequence (P35367 whole entry): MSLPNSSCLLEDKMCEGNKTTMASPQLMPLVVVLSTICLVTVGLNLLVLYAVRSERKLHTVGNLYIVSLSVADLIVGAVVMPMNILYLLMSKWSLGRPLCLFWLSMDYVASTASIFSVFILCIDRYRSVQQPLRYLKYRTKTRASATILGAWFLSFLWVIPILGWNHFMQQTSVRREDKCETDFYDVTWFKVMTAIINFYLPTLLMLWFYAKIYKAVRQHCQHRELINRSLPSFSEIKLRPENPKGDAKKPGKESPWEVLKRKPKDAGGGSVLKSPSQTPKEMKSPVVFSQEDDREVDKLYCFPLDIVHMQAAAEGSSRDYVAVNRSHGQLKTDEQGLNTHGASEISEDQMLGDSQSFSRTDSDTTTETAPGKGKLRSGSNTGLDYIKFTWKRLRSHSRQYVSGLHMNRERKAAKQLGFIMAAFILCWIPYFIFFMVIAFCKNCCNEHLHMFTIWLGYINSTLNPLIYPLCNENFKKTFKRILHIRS
Sequence of dopaminergic receptors D3 (P35462 whole entry): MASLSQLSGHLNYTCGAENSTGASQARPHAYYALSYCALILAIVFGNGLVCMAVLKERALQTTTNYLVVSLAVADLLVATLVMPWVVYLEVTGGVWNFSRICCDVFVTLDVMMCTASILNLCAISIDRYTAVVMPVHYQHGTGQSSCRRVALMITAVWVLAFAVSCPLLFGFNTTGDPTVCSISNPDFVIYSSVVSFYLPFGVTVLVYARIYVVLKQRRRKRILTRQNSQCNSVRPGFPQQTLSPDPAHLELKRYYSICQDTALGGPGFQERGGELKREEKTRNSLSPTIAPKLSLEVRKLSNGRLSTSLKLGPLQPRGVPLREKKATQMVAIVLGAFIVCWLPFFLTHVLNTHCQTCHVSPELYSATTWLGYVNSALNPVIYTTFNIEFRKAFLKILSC
T2 sequence (P28223 whole entry): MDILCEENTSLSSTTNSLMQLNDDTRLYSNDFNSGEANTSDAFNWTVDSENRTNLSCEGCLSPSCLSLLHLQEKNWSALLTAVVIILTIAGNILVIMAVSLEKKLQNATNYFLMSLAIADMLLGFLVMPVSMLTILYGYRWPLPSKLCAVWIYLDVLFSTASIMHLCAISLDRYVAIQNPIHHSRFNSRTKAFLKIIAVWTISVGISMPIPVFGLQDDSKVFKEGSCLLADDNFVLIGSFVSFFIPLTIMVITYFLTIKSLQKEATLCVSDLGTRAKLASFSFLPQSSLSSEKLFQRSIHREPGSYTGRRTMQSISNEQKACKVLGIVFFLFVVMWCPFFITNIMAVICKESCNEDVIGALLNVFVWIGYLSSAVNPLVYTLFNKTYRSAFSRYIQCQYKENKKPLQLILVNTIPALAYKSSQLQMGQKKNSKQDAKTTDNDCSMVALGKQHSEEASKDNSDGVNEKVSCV
Sequence of dopaminergic receptors D2 (P14416 whole entry): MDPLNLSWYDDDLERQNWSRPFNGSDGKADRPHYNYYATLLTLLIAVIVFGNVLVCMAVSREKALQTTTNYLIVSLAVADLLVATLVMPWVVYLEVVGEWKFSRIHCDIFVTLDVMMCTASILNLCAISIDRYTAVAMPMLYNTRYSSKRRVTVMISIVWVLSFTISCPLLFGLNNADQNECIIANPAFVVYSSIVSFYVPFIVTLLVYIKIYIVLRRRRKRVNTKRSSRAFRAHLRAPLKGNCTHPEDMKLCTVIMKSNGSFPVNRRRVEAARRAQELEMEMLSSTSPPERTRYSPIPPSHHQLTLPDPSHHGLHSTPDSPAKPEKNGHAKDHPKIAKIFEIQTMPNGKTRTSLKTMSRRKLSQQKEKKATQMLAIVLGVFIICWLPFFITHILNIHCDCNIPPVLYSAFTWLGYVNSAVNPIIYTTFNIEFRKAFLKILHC

Row | SMILES | inhibition at 1 µM [1] | inhibition at 1 µM [2] | inhibition at 1 µM (receptors D4.4) | inhibition at 1 µM (5-HT2A receptor) | inhibition at 1 µM (5-HT6 receptor) | α1 [%] [3] | inhibition at 1 µM (M3 muscarinic receptors) | inhibition at 1 µM [4] | inhibition at 1 µM [5] | D2 [%] [1] | D3 [%] [2] | D4.4 [%] (receptors D4.4) | 5-HT2A [%] (5-HT2A receptor) | 5-HT6 [%] (5-HT6 receptor) | M3 [%] (M3 muscarinic receptors) | SERT [%] [4] | H1 [%] [5] | Ki ([1]; read-out: Inhibition constants Ki for D2 receptors, D2) | Ki (5-HT2A receptor; read-out: Inhibition constants Ki, 5-HT2A) | Ki (5-HT6 receptor; read-out: Inhibition constants Ki, 5-HT6)
1 | O=S(=O)(NCC1CCN(CCOc2cccc3c2OCCO3)C1)c1ccc(Br)cc1 (stereo not drawn) [Compound 305, 4-Bromo-N-[[1-[2-(2,3-dihydro-1,4-benzodioxin-5-yloxy)ethyl]pyrrolidin-3-yl]methyl]benzenesulphonamide] | 57% | 48% | 52% | 93% | 52% | 84% | 11% | 94% | 54% |  |  |  |  |  |  |  |  |  |  | 
2 | CC1(C)Cc2cccc(OCCN3CCC(NS(=O)(=O)c4ccc5ccccc5c4)CC3)c2O1 [Compound 110, N-[1-[2-[(2,2-Dimethyl-3H-benzofuran-7-yl)oxy]ethyl]-4-piperidine]naphthalene-2-sulphonamide] |  |  |  |  |  | 45% |  |  |  | 74% | 73% | 42% | 91% | −60% | −7% | 39% | 52% |  |  | 
3 | Cc1c(S(=O)(=O)NCC2CCN(CCCc3noc4cc(F)ccc34)C2)sc2ccc(Cl)cc12 (stereo not drawn) [Compound 238, 5-Chloro-N-[[1-[3-(6-fluoro-1,2-benzoxazol-3-yl)propyl]pyrrolidin-3-yl]methyl]-3-methyl-benzothiophene-2-sulphonamide] | 98% | 95% | 48% | 99% | 96% | 82% | 26% | 64% | 65% |  |  |  |  |  |  |  |  | 3.9 nM | 3 nM | 17 nM
4 | O=S(=O)(NC1CCN(CCOc2cccc3[nH]ccc23)CC1)c1ccccc1 [Compound 55, N-[1-[2-(1H-Indol-4-yloxy)ethyl]-4-piperidine]benzenesulphonamide] |  |  |  |  |  | 51% |  |  |  | 44% | 93% | 31% | 94% | 3% | −1% | 6% | 0% |  |  | 
